Laboratory results published in patent US7799794B2, “Treatment for cardiovascular disease” (Merck Sharp & Dohme Corp., priority 2000, dated 2010).
Marks after values point to notes of the source that are not given here.

Key:
Sprague-Dawley rats [1] = assay: Enalapril or L-Arginine in hyperuricemic rats on low salt diet: blood pressure (Example 4); format: in vivo, rat; conditions: hyperuricemic control rats, OA + low salt diet
Experimental: Rats were placed on either low salt diet, low salt diet with 2% oxonic acid, low salt diet with oxonic acid and enalapril (1 mg/kg/d in drinking water), or low salt diet with oxonic acid and L-Arginine (1% in drinking water).
(§1) Am J Physiol 268:F1 164-76, 1995].

Sprague-Dawley rats [2] = assay: Allopurinol intervention or oxonic acid withdrawal in hyperuricemic rats: blood pressure (Example 3); format: in vivo, rat; conditions: oxonic acid withdrawn at 7 weeks, LSD continued
Description: Rats were placed on the low sodium diet with oxonic acid for 7 weeks, and then were matched based on uric acid level and blood pressure in various groups to either receive allopurinol, have the oxonic acid withdrawn from the diet, or continue the oxonic acid/low salt diet. A control group of six rats were placed on the lowsodium diet alone for 11 weeks. All of these rats were sacrificed at week 11.
as §1
(§2) Am J Clin Pathol 1957; 28:152.]. Serum blood urea nitrogen was measured by a standard kit (Sigma, St Louis, Mo.).

Sprague-Dawley rats [3] = assay: Renal findings at 7 weeks: immunohistochemistry and BUN (Example 2); format: in vivo, rat; conditions: low NaCl diet
Experimental: Rats were placed on a low sodium diet (NaCl, 0.125%) with or without 2% oxonic acid for 7 weeks. A third group were administered allopurinol in the drinking water (150 mg/L) with weekly adjustments of the dose depending on the uric acid level.
as §2
Renal biopsies were fixed in Methyl-Carnoy's, 10% formalin or 100% ethanol and embedded in paraffin. The presence of uric acid crystals was evaluated by staining 4-μm ethanol-fixed sections with de Galantha and modified Von Kossa stains. Kidney tissue from rats with acute uric acid nephropathy, induced with oxonic acid and uric acid administration was used as a positive control [Stavric, B., Johnson, W. J., and Grice, H. C., Uric acid nephropathy: An experimental model, Proc. Soc. Exp. Biol. Med. 130: 512-16 (1969).]. Light microscopy was performed in 4-μm sections of Methyl-Carnoy's fixed tissue stained with periodic acid Schiff (PAS) reagent or with hematoxylin and eosin.
Methyl-Carnoy's fixed tissue sections were analyzed by indirect immunoperoxidase [Lombardi, D., Gordon , K. L., Polinsky, P., Suga, S., Schwartz, S. M., and Johnson, R. J. Salt sensitive hypertension develops after transient exposure to angiotensin II. Hypertension 33:1013-1019, 1999] staining with the following primary antibodies: OP199, a goat polyclonal antibody against osteopontin (OPN)(gift of C. Giachelli, Univ of Wash., Seattle); ED-1, a monoclonal antibody to rat monocytes and macrophages (Serotec); goat antihuman type III collagen (Southern Biotechnology Associates Inc, Birminghan Ala.); and anti-renin, a mouse antibody to human renin (Sanofi Recherche, Montpellier, France). Sections were incubated with a secondary antibody followed by horseradish peroxidase-conjugated avidin D (Vector Laboratories, Burlingame, Calif.), diaminobenzidine (Sigma) with or without nickel chloride as a chromogen, and counsterstained with methyl green.
NOS1 was detected on formalin fixed tissue sections with a rabbit anti-rat neuronal nitric oxide synthase (Transduction Laboratories, Lexington, Ky.), followed by a biotinylated secondary antibody, diaminobenzidine with nickel chloride and counterstained with nuclear fast red.
All quantification was performed blinded. The tubular expression of osteopontin (OPN), which is a sensitive marker of tubulointerstitial injury, was calculated as the percent of renal cortex occupied by OPN-positive tubules [Lombardi, D., Gordon, K. L., Polinsky, P., Suga, S., Schwartz, S. M., and Johnson, R. J. Salt sensitive hypertension develops after transient exposure to angiotensin II. Hypertension 33:1013-1019, 1999]. Utilizing computer-assisted image analysis software (Optimas V6.2, Media Cybernetics, Silver Springs, Md.) and digitized images, the percent of area occupied by OPN positive tubules per 4 mm^2 field at a magnification of 50× was measured and the mean percent area calculated for each biopsy. The interstitial deposition of collagen type III was calculated as the % of renal cortex occupied by collagen III, noted by immunostaining, by computer image analysis. The mean number of interstitial macrophages (ED-1+cells) in each biopsy was calculated in a blinded manner by counting the total number of positive interstitial cortical cells in 20 sequentially selected 0.25 mm^2 grids at 200× magnification. Renin expression was quantified by the number of glomeruli with positive staining for juxtaglomerular renin using a minimum of 100 glomeruli in each biopsy as previously described [Eng, E., et al., Renal proliferation and phenotypic changes in rats with two-kidney, one-clip Goldblatt hypertension. Am J Hypertens 7:177-185 (1994)]; this has been shown previously to correlate with intrarenal renin content[Eng, E., et al., Renal proliferation and phenotypic changes in rats with two-kidney, one-clip Goldblatt hypertension. Am J Hypertens 7:177-185 (1994)]. […]

Sprague-Dawley rats [4] = assay: Cyclosporine nephropathy with or without oxonic acid: body weight, renal function, uric acid, CSA level (Example 5); conditions: 7 weeks
Experimental: Studies were conducted in 20 adult male Sprague-Dawley rats (Simmonsen Laboratories, Gilroy, Calif., USA) weighing 200 to 250 grams. All rats were fed a low salt diet (0.125% NaCl)(Zeigler Bros, Gardners, Pa.), with water ad libitum. […] In order to induce hyperuricemia, oxonic acid 2% was added to low salt diet. Because rats have uricase, an hepatic enzyme which degrades uric acid to allantoin, the blockade of this enzyme by oxonic acid is necessary.
After 7 weeks, rats were placed in individual metabolic cages for 24-hour urine collection. The following day, rats were anesthetized with xylazine and ketamine, serum was collected for creatinine and uric acid measurements, and both kidneys were obtained for histology evaluation. Biopsies were fixed in 10% formalin, 100% ethanol or Methyl Camoy's.
Serum and urine creatinine were measured by a standard picric acid method (Sigma Diagnostics creatinine kit, St. Louis, Mo.). Serum and urine uric acid were measured by a modified carbonate-phosphotungstate method [Henry, R. J., Sobel, C., and Kim, J., A modified carbonate phosphotungstate method for the determination of uric acid and comparison with the spectophotometric uricase method. Am J Clin Pathol 1957; 28:152.]. Fractional uric acid excretion and creatinine clearance were calculated by standard formulas.
All values are expressed as mean±SD, unless otherwise stated. The differences between groups were compared with unpaired Student's t tests.

SMILES: O=C(O)c1nc(=O)[nH]c(=O)[nH]1 [oxonic acid]
- increase in systolic blood pressure over the 7 week dietary period (Sprague-Dawley rats [1]): approximately 20 mm Hg
- blood pressure and serum uric acid in hypertensive, hyperuricemic rats (Sprague-Dawley rats [2]): reduction in the blood pressure in association with a fall in serum uric acid values
- Renin (Sprague-Dawley rats [3]; control 39.6 ± 2.0): 60.9 ± 1.5 % positive JGA
- NOS-1 (Sprague-Dawley rats [3]; control 147.2 ± 12.4): 80.4 ± 4.3 positive cells/100 glomeruli
- OPN (Sprague-Dawley rats [3]; mean±SE, control 0.9 ± 0.06): 1.8 ± 0.06 % increase
- Type III collagen (Sprague-Dawley rats [3]; mean±SE, control 5.4 ± 0.3): 8.8 ± 1.5 %
- BUN (Sprague-Dawley rats [3]; mean±SE, control 14.4 ± 1.2): 23.2 ± 2.3 mg/dL
- ED-1 (macrophages) (Sprague-Dawley rats [3]; mean±SE, control 18.3 ± 1.3): 27.2 ± 1.9 cells/mm2
- urinary uric acid (Sprague-Dawley rats [4]; 24-hour urine, vehicle 2.19 ± 0.66): 5.06 ± 2.81^a mg/day
- Serum Uric Acid (Sprague-Dawley rats [4]; mean±SD, vehicle 1.62 ± 0.31): 4.08 ± 1.22^a mg/dl
- Weight (Sprague-Dawley rats [4]; mean±SD, vehicle 422.2 ± 31.2): 421.2 ± 28.8 grams
- FE urate (fractional excretion of uric acid) (Sprague-Dawley rats [4]; vehicle 0.12 ± 0.06): 0.11 ± 0.14
- Urate/creatinine (urine) (Sprague-Dawley rats [4]; vehicle 0.20 ± 0.08): 0.35 ± 0.27
- Serum Creatinine (Sprague-Dawley rats [4]; vehicle 0.94 ± 0.24): 0.88 ± 0.19 mg/dL
- Creatnine Clearance (Sprague-Dawley rats [4]; vehicle 1.39 ± 0.73): 1.94 ± 0.73 mL/min
